Data as given in patent US11718589B2, “Compositions and methods of modulating short-chain dehydrogenase” (CASE WESTERN RESERVE UNIVERSITY, priority 2017, dated 2023).

Each molecule was assayed against recombinant 15-PGDH (Homo sapiens (Human), UniProt P15428) (assay: Enzyme inhibition of recombinant 15-PGDH, in vitro assay). Conditions: not given.
Type: biochemical

recombinant 15-PGDH, sequence (P15428 whole entry): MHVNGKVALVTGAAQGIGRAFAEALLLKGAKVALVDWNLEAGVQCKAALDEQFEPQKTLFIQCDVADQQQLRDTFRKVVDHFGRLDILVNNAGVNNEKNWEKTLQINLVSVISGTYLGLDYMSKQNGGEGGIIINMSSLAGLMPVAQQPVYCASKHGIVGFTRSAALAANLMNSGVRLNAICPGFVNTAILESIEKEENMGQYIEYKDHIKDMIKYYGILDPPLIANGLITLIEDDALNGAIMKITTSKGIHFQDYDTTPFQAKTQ

SMILES | IC50 [µM]
COc1ccc(-c2cc(C(F)(F)F)n3nc(C(=O)N4CCC(=O)CC4)cc3n2)cc1 [13a] | 0.5 to 2.5

Same assay, conditions: recombinant human 15-PGDH; read-out: Enzyme inhibition (IC50)

SMILES | IC50 [µM]
COC(=O)CNC(=O)c1ccc2nc(-c3ccccc3)c(-c3ccccc3)nc2c1 [16b] | > 2.5
COc1ccc(-c2cc(-c3cccnc3)n3nc(C(=O)N4CCCCC4)cc3n2)cc1 [23a] | ~0.1
COc1ccc(-c2cc(-c3ccnc(F)c3)n3nc(C(=O)N4CCCCC4)cc3n2)cc1 [30a] | 0.02 to 0.1
COc1ccc(-c2cc(C(F)(F)F)n3nc(C(=O)N4CCCC(F)(F)C4)cc3n2)cc1 [65a] | 0.1
COc1ccc(-c2cc(C(F)(F)F)n3nc(C(=O)N4CCC(C(F)(F)F)CC4)cc3n2)cc1 [60a] | 0.5 to 2.5
O=C(c1ccc2ncc(-c3cccc(F)c3)nc2c1)N1CCCCC1 [41b] | 0.004 to 0.02
COc1ccc(-c2cc(C(F)(F)F)n3nc(C(=O)N4CCC(NC(=O)OC(C)(C)C)CC4)cc3n2)cc1 [14a] | 0.1 to 0.5
O=C(c1cc2nc(-c3ccc(C(F)(F)F)cc3)cc(C(F)(F)F)n2n1)N1CCCCC1 [47a] | > 2.5
CCCC[S+]([O-])c1cc2nc(-c3ccc(OC)cc3)cc(-c3cccn3C)n2n1 (stereo not drawn) [54a] | 0.004 to 0.02
COc1ccc(-c2cc(-c3ccc(F)nc3)n3nc(C(=O)N4CCCCC4)cc3n2)cc1 [27a] | > 0.5
O=C(c1cc2nc(N3CCCCC3)cc(C(F)(F)F)n2n1)N1CCCCC1 [39a] | 0.66
COc1ccc(-c2cc(-c3cnn(C)c3)n3nc(C(=O)N4CCCCC4)cc3n2)cc1 [29a] | 0.02 to 0.1
O=C(c1cc2nc(-c3ccccc3)cc(C(F)(F)F)n2n1)N1CCCCC1 [61a] | > 2.5
O=C(c1ccc2ncc(-c3ccc(F)cc3F)nc2c1)N1CCCCC1 [45b] | 0.004
COc1ccc(-c2cc(C(F)(F)F)n3nc(C(=O)N4CCCCC4C)cc3n2)cc1 (stereo not drawn) [20a] | 0.033
COc1ccc(-c2cc(C(F)(F)F)n3nc(C(=O)N4CCCC(C(F)(F)F)C4)cc3n2)cc1 (stereo not drawn) [64a] | 0.1 to 0.5
CCCC[S+]([O-])c1cc2nc(-c3ccc(OC)cc3)cc(-c3ccnn3C)n2n1 (stereo not drawn) [72a] | 0.004 to 0.02
COc1ccc(-c2cc(C3CC3)n3nc(C(=O)N4CCCCC4)cc3n2)cc1 [67a] | 0.004 to 0.02

SMILES | IC50 [µM]
COc1ccc(-c2cc(N3CCCCC3)n3nc(C(=O)N4CCCCC4)cc3n2)cc1 [44a] | 0.5
COc1ccc(-c2cc(C(F)(F)F)n3nc(C(=O)N4CCCC(CF)C4)cc3n2)cc1 (stereo not drawn) [58a] | 0.02 to 0.1
Cc1ccc(-c2cc(C(F)(F)F)n3nc(C(=O)N4CCCCC4)cc3n2)cc1 [40a] | 0.395
CNC(=O)c1[nH]c2ccc(-c3cnc4ccc(C(=O)N5CCCCC5)cc4n3)cc2c1C [94b] | < 0.004
COc1ccc(-c2cc(C(F)(F)F)n3nc(C(=O)N4CCCC(C(F)F)C4)cc3n2)cc1 (stereo not drawn) [66a] | 0.02 to 0.1
O=C(c1ccc2ncc(-c3cc(F)cc(F)c3)nc2c1)N1CCCCC1 [47b] | 0.016
CC(C)(O)Cn1ccc2cc(-c3cnc4ccc(C(=O)N5CCCCC5)cc4n3)ccc2c1=O [89b] | ~0.004
O=C(c1ccc2nc(-c3ccccc3)c(-c3ccc(F)nc3)nc2c1)N1CCCCC1 [35b] | 0.02 to 0.1
O=C(c1ccc2nc(-c3ccccc3)c(-c3ccccc3)nc2c1)N1CCCCC1CO (stereo not drawn) [26b] | 0.1 to 0.5
CNc1cc(-c2ccc(OC)cc2)nc2cc(C(=O)N3CCCCC3)nn12 [31a] | 0.02 to 0.1
O=C(c1ccc2nc(-c3ccccc3)c(-c3ccncc3)nc2c1)N1CCCCC1 [34b] | 0.02
Cn1cc(-c2nc3cc(C(=O)N4CCCCC4)ccc3nc2-c2ccccc2)cn1 [37b] | 0.02 to 0.1
O=C(c1cc2ncc(-c3ccccc3)cn2n1)N1CCCCC1 [41a] | 0.768
CC1CCCCN1C(=O)c1ccc2nc(-c3ccccc3)c(-c3ccccc3)nc2c1 (stereo not drawn) [29b] | 0.1 to 0.5
O=C(NCc1ccccc1)c1ccc2nc(-c3ccccc3)c(-c3ccccc3)nc2c1 [15b] | > 2.5
CCOC(=O)c1[nH]c2ccc(-c3cnc4ccc(C(=O)N5CCCCC5)cc4n3)cc2c1C [91b] | ~0.004
CCN(CC)C(=O)c1cc2nc(-c3ccc(OC)cc3)cc(C(F)(F)F)n2n1 [8a] | 0.1
